Source: patent US10669588B2, “Methods for sub-typing and treating cancer” (HI-STEM GGMBH im Deutschen, priority 2014, dated 2020)
Read-outs that look alike come from different tables or passages of the source.

Experiments:
exocrine-like PACO cells = assay type: cell-based, human
Procedure: (§1) Quantitative results were analyzed by one-way analysis of variance (multiple groups/grouped analysis) and Student's t test (two groups), using GraphPad Prism (Graph Pad Software). Survival analysis was performed using Mantel-Cox log-rank test as well as Cox proportional hazards multivariate analysis using the Statistical Package for the Social Sciences (IPM SPSS software). Additionally, Pearson chi-squared test was used for comparative data analysis, using SPSS. We considered p<0.05 (two-sided) as statistically significant. For GSEA a False Discovery Rate (FDR) of <0.2 was considered statistically significant. Treatment data were evaluated by determining the activity area (Barretina et al., 2012) from each dose response curve by adding max (100-mean response, 0) for every concentration. Activity areas from the same biological replicate were compared by paired t-test. Calculations were performed in R Version 3.1.0 (Chee et al., 2013).

[1] = test system: classical and QM-PDA PACO cells; test: Drug treatment assay, relative cell viability (CellTiterBlue); assay type: cell-based, human; conditions: for drug sensitivity after ketoconazole pre-treatment (relative cell viability, activity area): QM-PDA (PACO9) and classical (PACO2), 100 nM ketoconazole pre-treatment for 2 hours vs vehicle, 48 hours; for drug sensitivity (relative cell viability): classical and QM-PDA subtype PACO lines, 1 μM or 10 μM, after 48 hours
Procedure: as §1

CYP3A4 and CYP3A7 [2] = conditions: for expression of CYP3A4 and CYP3A7 in response to drug: PACO2, PACO10, PACO14, PACO9, 10 μM drug; for expression of CYP3A4 and CYP3A7 in drug-resistant cell lines: PACO2, PACO7 after 8 weeks of increasing doses
CYP3A5 [3] = test: CYP3A5 mRNA (qRT-PCR) and protein (Western blot) expression in PACO cells after drug exposure; assay type: cell-based, human; conditions: for CYP3A5 expression in response to drug: QM-PDA (PACO9) and classical (PACO2) PACO lines, 10 μM drug; for CYP3A5 mRNA and protein expression in response to drug: exocrine-like PACO10, PACO14, 10 μM drug vs basal level; for CYP3A5 mRNA expression in drug-resistant cell lines: PACO2, PACO7 after 8 weeks of increasing doses, vs control cell lines
[4] = test system: tumors derived from exocrine-like PACO lines (PACO10, PACO14); test: In vivo drug treatment of subcutaneous shCYP3A5 or shScr PACO tumors; set-up: species or system NSG mice; conditions: 100 mg/kg oral gavage, 5 days on / 2 days rest, 14 days
Procedure: Tumors were established by subcutaneously injecting 5×10^5 shCYP3A5 or shScr PACO cells into female NOD.Cg-Prkdc^scid II2rg^tm1Wjl (NSG) mice (n=48) using Matrigel (2 mg/ml) in a total injection volume of 100 μl. After the tumors reached a size of approximately 200 mm^3, mice were randomized into eight groups (n=6 each) for drug administration. Erlotinib was prepared in 0.5% methylcellulose, 0.1% Tween 80 and 99.4% water for injection (WFI). Erlotinib (100 mg/kg) or vehicle were then administrated by oral gavage at 5 consecutive days followed by 2 days of rest, for duration of 14 days. Tumor volume was determined twice weekly by calliper measurements and calculated according to the formula (length×height×width)×(π/6). Tumor growth was calculated for each individual tumor by normalizing to the tumor volume at day 0. After two weeks of treatment, mice were sacrificed and tumors were resected for further analysis.

[5] = test system: drug-resistant sublines of classical (PACO2) and QM-PDA (PACO7) cells; test: Drug sensitivity of drug-resistant sublines from 8-week treatment; conditions: for resistance of sublines to the drug used for long-term treatment: PACO2, PACO7 treated with increasing doses over 8 weeks, vs DMSO-control treated parental lines
CYP3A5 [6] = test: Measurement of conversion of erlotinib and dasatinib in cell supernatant (LC-MS/MS); assay type: in vitro ADME, human; conditions: 1 μM and 10 μM; for metabolism of drug in the absence of CYP3A5: CYP3A5 siRNA transfected exocrine-like PACO14, PACO18; for conversion of drug (disappearance of unmodified structure from supernatant): exocrine-like PACO14, PACO18, six time points
Procedure: In brief, the amount of unmodified dasatinib and erlotinib in the supernatant of cells was monitored by quantitative LC-MS/MS analysis on an AB Sciex QTrap 5500 tandem mass spectrometer.
500 μl of reaction media were quenched with 1,000 μL of acetonitrile at each time point and mixed. After centrifugation clear supernatants were pre-diluted with PACO media and acetonitrile at a ratio 1:25. 100 μL of the sample were transferred into a new vial, followed by addition of 10 μL (S)-(−)-Propranolol hydrochloride solution (105 μg/L) and finally vigorously mixed. 10 μL were injected onto column. Calibration and quality control samples were prepared by spiking either dasatinib or erlotinib to the PACO media. The sample was injected onto a PerfectSil Target ODS-3, 3 μm, 100×2.1 mm HPLC column (MZ-Analysentechnik, Mainz, Germany), using an Agilent 1100 (Agilent, Waldbrunn, Germany) binary pump and degasser, with a CTC PAL sampler (CTC Analytics, Zwingen, Switzerland). The column temperature was 35° C. Chromatographic separation was performed by gradient elution at a constant flow rate of 250 μL/min for 15 minutes. The gradient consisted of 20 mM NH4OAc plus 0.1% formic acid (mobile phase A) and 400 mM NH4OAc/methanol/acetonitrile 5:5:90 plus 0.1% formic acid (mobile phase B). The gradient applied was 0.0 min, 70% A/30% B; 1.5 min 70% A/30% B; 3.0 min 5% A/95% B; 11.0 min 5% A/95% B; 11.5 min 70% A/30% B and 15 min 70% A/30% B. The eluate was directed to an AB Sciex QTrap 5500 tandem mass spectrometer (AB Sciex, Darmstadt, Germany) with an electron spray ionization (ESI) source from 4 to 8 min runtime. Mass transitions of 488.1 to 401.1 for dasatinib, 394.0 to 278.1 for erlotinib and 260.1 to 116.1 for (S)-(−)-Propranolol were monitored. […] Nitrogen was produced by a high purity nitrogen generator (CMC Instruments) and applied to curtain, collision and drying gasses. De-clustering potentials, collision energy and collision exit potential were as follows: 26 V, 39 V and 12 V for dasatinib, 16 V, 43 V and 26 V for erlotinib and 61 V, 23 V and 14 V for (S)-(−)-Propranolol.

CYP3A4 and CYP3A7 [7] = test: CYP3A4 and CYP3A7 expression in xenografts after paclitaxel treatment in vivo (qRT-PCR); set-up: species or system mice; conditions: classical subtype (PACO17) xenografts; after 18 days of treatment; vs vehicle
CYP3A5 [8] = test: CYP3A5 expression in xenografts after paclitaxel treatment in vivo (qRT-PCR, immunohistochemistry); set-up: species or system mice; conditions: classical subtype (PACO17) xenografts; after 18 days of treatment; vs vehicle
HepG2 cells = test: Paclitaxel sensitivity of hepatocellular carcinoma cells
SNU5 cells = test: Paclitaxel sensitivity of gastric cancer cells; assay type: cell-based, human; conditions: gastric cancer cell line SNU5
[9] = exocrine-like subtype PACO lines, 1 μM or 10 μM, after 48 hours

CCc1c2c(nc3ccc(OC(=O)N4CCC(N5CCCCC5)CC4)cc13)-c1cc3c(c(=O)n1C2)COC(=O)[C@]3(O)CC [irinotecan]
drug sensitivity after knockdown of CYP3A5 (exocrine-like PACO cells): sensitive | drug sensitivity (relative cell viability) (exocrine-like PACO cells; exocrine-like subtype compared to the other two subtypes, 1 μM and 10 μM, 48 h and 7 d): highly resistant

Nc1ccn([C@@H]2O[C@H](CO)[C@@H](O)C2(F)F)c(=O)n1 [gemcitabine]
drug sensitivity after ketoconazole pre-treatment (relative cell viability, activity area) [1]: remained unchanged | drug sensitivity (relative cell viability) [1]: sensitive | drug sensitivity after CYP3A5 siRNA knockdown (relative cell viability, activity area) (exocrine-like PACO cells): remained unchanged | drug sensitivity (relative cell viability) (exocrine-like PACO cells; [9]): almost completely resistant | expression of CYP3A4 and CYP3A7 in response to drug (CYP3A4 and CYP3A7 [2]): not induced | CYP3A5 expression in response to drug (CYP3A5 [3]): did not prompt CYP3A5 expression | CYP3A5 mRNA and protein expression in response to drug (CYP3A5 [3]): did not lead to the induction of CYP3A5

C#Cc1cccc(Nc2ncnc3cc(OCCOC)c(OCCOC)cc23)c1 [erlotinib]
drug sensitivity after ketoconazole pre-treatment (relative cell viability, activity area) [1]: remained unchanged | drug sensitivity (relative cell viability) [1]: sensitive | growth of CYP3A5 knockdown tumors ([4]; shCYP3A5 tumors): completely inhibited | effect on growth of control tumors ([4]; shScr control tumors): no effect | resistance of sublines to the drug used for long-term treatment [5]: significantly higher resistance | drug sensitivity after CYP3A5 siRNA knockdown (relative cell viability, activity area) (exocrine-like PACO cells): dramatically sensitized | drug sensitivity after ketoconazole pre-treatment (relative cell viability, activity area) (exocrine-like PACO cells; exocrine-like (PACO14), 100 nM ketoconazole pre-treatment for 2 hours vs vehicle, 48 hours): significantly more sensitive | drug sensitivity (relative cell viability) (exocrine-like PACO cells; [9]): almost completely resistant | metabolism of drug in the absence of CYP3A5 (CYP3A5 [6]): completely abolished | conversion of drug (disappearance of unmodified structure from supernatant) (CYP3A5 [6]): rapid conversion | expression of CYP3A4 and CYP3A7 in drug-resistant cell lines (CYP3A4 and CYP3A7 [2]): not detectable | expression of CYP3A4 and CYP3A7 in response to drug (CYP3A4 and CYP3A7 [2]): not induced | CYP3A5 mRNA expression in drug-resistant cell lines (CYP3A5 [3]): significantly higher | CYP3A5 expression in response to drug (CYP3A5 [3]): did not prompt CYP3A5 expression | CYP3A5 mRNA and protein expression in response to drug (CYP3A5 [3]): strongly induced

Cc1nc(Nc2ncc(C(=O)Nc3c(C)cccc3Cl)s2)cc(N2CCN(CCO)CC2)n1 [dasatinib]
drug sensitivity after CYP3A5 siRNA knockdown (relative cell viability, activity area) (exocrine-like PACO cells): dramatically sensitized | metabolism of drug in the absence of CYP3A5 (CYP3A5 [6]): completely abolished | conversion of drug (disappearance of unmodified structure from supernatant) (CYP3A5 [6]): rapid conversion | expression of CYP3A4 and CYP3A7 in drug-resistant cell lines (CYP3A4 and CYP3A7 [2]): not detectable | expression of CYP3A4 and CYP3A7 in response to drug (CYP3A4 and CYP3A7 [2]): not induced | CYP3A5 mRNA expression in drug-resistant cell lines (CYP3A5 [3]): significantly higher | CYP3A5 expression in response to drug (CYP3A5 [3]): did not prompt CYP3A5 expression | CYP3A5 mRNA and protein expression in response to drug (CYP3A5 [3]): strongly induced

CC(=O)O[C@H]1C(=O)[C@@]2(C)[C@H]([C@H](OC(=O)c3ccccc3)[C@]3(O)C[C@H](OC(=O)[C@H](O)[C@@H](NC(=O)c4ccccc4)c4ccccc4)C(C)=C1C3(C)C)[C@]1(OC(C)=O)CO[C@@H]1C[C@@H]2O [paclitaxel]
expression of CYP3A4 and CYP3A7 in treated xenografts (CYP3A4 and CYP3A7 [7]): not upregulated | resistance of sublines to the drug used for long-term treatment [5]: significantly higher resistance | CYP3A5 expression in treated xenografts (CYP3A5 [8]): upregulation of CYP3A5 | sensitivity to drug (HepG2 cells; HepG2 cells treated with non-targeting control siRNA): almost completely resistant | sensitivity to drug after knockdown of CYP3A5 (HepG2 cells; HepG2 cells, siRNA-mediated knockdown of CYP3A5): significantly sensitized | expression of CYP3A4 and CYP3A7 in drug-resistant cell lines (CYP3A4 and CYP3A7 [2]): not detectable | CYP3A5 mRNA expression in drug-resistant cell lines (CYP3A5 [3]): significantly higher

CC(=O)N1CCN(c2ccc(OCC3COC(Cn4ccnc4)(c4ccc(Cl)cc4Cl)O3)cc2)CC1 (stereo not drawn) [ketoconazole]
sensitization of paclitaxel-resistant cell lines by co-treatment ([5]; paclitaxel-resistant PACO2 and PACO7 sublines, co-treatment with paclitaxel): comparable sensitization | sensitization to paclitaxel by inhibition of CYP function (HepG2 cells; HepG2 cells, compared with CYP3A5 knockdown): even stronger sensitization | sensitization to paclitaxel by inhibition of CYP activity (SNU5 cells): strongly sensitized
